Literature values in paper PMC10459069, “Comparative Serum and Brain Pharmacokinetics of Quercetin after Oral and Nasal Administration to Rats as Lyophilized Complexes with β-Cyclodextrin Derivatives and Their Blends with Mannitol/Lecithin Microparticles” (Pharmaceutics, 2023).

What was measured:
[1] = rats
[2] = set-up: method as in PMID 19720149; conditions: mice, 6-week treatment with Que-enriched diets (2 mg/g diet)
[3] = reference not given

Cmax/dose ratio ([1]; intragastric administration of 100 mg/kg of pure Que, ref Yang et al. (2016) 46)	levels in the brain ([1]; single oral administration of Que)	brain levels [2]	logP [3]	Compound
0.03	did not reveal measurable levels	0.085 µg/g		O=c1c(O)c(-c2ccc(O)c(O)c2)oc2cc(O)cc(O)c12 [Que, Quercetin]
			−3.4	OC[C@@H](O)[C@@H](O)[C@H](O)[C@H](O)CO [mannitol, Mannitol]
